Reference: US20250144067A1, “PERSONALIZED STARVATION THERAPY FOR CANCER” (Faeth Therapeutics, Inc., priority 2021, published 2025)
Structures can show the parent of a compound that is named as a salt.

How the values were obtained:
[1] = test system: NCI-H292 lung cancer cells; experiment: FDA drug screening, complete media vs cholesterol-free media with simvastatin (TABLE 2); format: cell-based, human; settings: for Cholesterol-free media + simvastatin (0.04 μM) / Complete Media: NCI-H292 cells
[2] = test system: NCI-H292 lung cancer cells; experiment: FDA drug screening, complete media vs cholesterol-free media without statin (TABLE 1); format: cell-based, human
[3] = cholesterol-free media with simvastatin 0.04 μM, cell growth value in FDA drug screen
[4] = complete media, cell growth value in FDA drug screen
[5] = complete media minus cholesterol-free media + simvastatin, >0 enhanced anti-cancer activity, about 0 neutral, <0 antagonist
[6] = NCI-H292 cells, cholesterol-free media without statin
[7] = complete vs cholesterol-free media, greater than 0 enhanced anti-cancer activity, about 0 neutral, below 0 antagonists
[8] = FDA drug library screen, cholesterol-free media with simvastatin 0.04 μM
[9] = FDA drug library screen, complete media
[10] = complete media vs cholesterol-free media + simvastatin (0.04 μM), >0 enhanced anti-cancer activity, about 0 neutral, <0 antagonist
[11] = Complete minus Cholesterol-free, >0 enhanced anti-cancer activity, about 0 neutral, <0 antagonist
[12] = drug in cholesterol-free media with simvastatin 0.04 μM
[13] = FDA library drug in cholesterol-free media with simvastatin 0.04 μM
[14] = FDA library drug in complete media
[15] = Complete minus Cholesterol-free, greater than 0 enhanced anti-cancer activity, about 0 neutral, below 0 antagonist
[16] = NCI-H292 cells, FDA drug library screen, cholesterol-free media without statin
[17] = NCI-H292 cells, FDA drug library screen, complete media
[18] = NCI-H292 cells, cholesterol-free media without statin, FDA drug library screen
[19] = NCI-H292 cells, complete media, FDA drug library screen
[20] = Complete minus Cholesterol-free, greater than 0 enhanced anti-cancer activity, about 0 neutral, below 0 antagonists
[21] = NCI-H292 cells in cholesterol-free media without statin
[22] = NCI-H292 cells in complete media
[23] = complete vs cholesterol-free media, >0 enhanced anti-cancer activity, about 0 neutral, <0 antagonist
[24] = Complete minus Cholesterol-free, […]
[25] = cholesterol-free media with simvastatin 0.04 μM, FDA drug library screen (TABLE 2)
[26] = complete media, FDA drug library screen (TABLE 2)
[27] = complete media minus cholesterol-free media + simvastatin (0.04 μM), >0 enhanced anti-cancer activity, about 0 neutral, <0 antagonist

C[C@@H]1C[C@H]2[C@@H]3C[C@H](F)C4=CC(=O)C=C[C@]4(C)[C@@]3(F)[C@@H](O)C[C@]2(C)[C@@]1(OC(=O)c1ccco1)C(=O)SCF [Fluticasone furoate]
Cholesterol-free media + simvastatin (0.04 μM) [1, 3]: 0.7104
Complete Media [1, 4]: 0.7486
Difference [1, 5]: 0.04
Cholesterol-free [2, 6]: 1.047
Complete ([2]; NCI-H292 cells, complete media): 0.6144
Difference [2, 7]: −0.43

CC(C)n1c(/C=C/C(O)CC(O)CC(=O)O)c(-c2ccc(F)cc2)c2ccccc21 (centres unmarked) [Fluvastatin (sodium)]
Cholesterol-free media + simvastatin (0.04 μM) [1, 8]: 0.3266
Complete Media [1, 9]: 0.199
Difference [1, 10]: −0.13
Difference [2, 11]: −0.22
Cholesterol-free [2, 6]: 0.3896
Complete ([2]; NCI-H292 cells, complete media): 0.168

Nc1nc2ncc(CNc3ccc(C(=O)N[C@@H](CCC(=O)O)C(=O)O)cc3)nc2c(=O)[nH]1 [Folic acid]
Cholesterol-free media + simvastatin (0.04 μM) [1, 12]: 1.118
Complete Media ([1]; drug in complete media): 0.9443
Difference [1, 10]: −0.17
Cholesterol-free [2, 6]: 1.731
Complete ([2]; NCI-H292 cells, complete media): 1.312
Difference [2, 7]: −0.42

Nc1nc(=O)c2c([nH]1)NC[C@@H](CNc1ccc(C(=O)N[C@@H](CCC(=O)O)C(=O)O)cc1)N2C=O [Folinic acid]
Cholesterol-free media + simvastatin (0.04 μM) [1, 13]: 1.232
Complete Media [1, 14]: 0.9515
Difference [1, 10]: −0.28
Difference [2, 15]: −0.12
Cholesterol-free [2, 16]: 1.105
Complete [2, 17]: 0.9813

Cc1cn[nH]c1 [Fomepizole]
Cholesterol-free media + simvastatin (0.04 μM) [1, 8]: 0.8562
Complete Media [1, 9]: 1.121
Difference [1, 5]: 0.26
Difference [2, 11]: −0.26
Cholesterol-free [2, 6]: 1.239
Complete ([2]; NCI-H292 cells, complete media): 0.9771

CO[C@H]1O[C@H](COS(=O)(=O)O)[C@@H](O[C@@H]2O[C@@H](C(=O)O)[C@@H](O[C@H]3O[C@H](COS(=O)(=O)O)[C@@H](O[C@@H]4O[C@H](C(=O)O)[C@@H](O[C@H]5O[C@H](COS(=O)(=O)O)[C@@H](O)[C@H](O)[C@H]5NS(=O)(=O)O)[C@H](O)[C@H]4O)[C@H](OS(=O)(=O)O)[C@H]3NS(=O)(=O)O)[C@H](O)[C@H]2OS(=O)(=O)O)[C@H](O)[C@H]1NS(=O)(=O)O [Fondaparinux (sodium)]
Cholesterol-free media + simvastatin (0.04 μM) [1, 13]: 1.182
Complete Media [1, 14]: 0.8937
Difference [1, 10]: −0.29
Difference [2, 15]: −0.10
Cholesterol-free [2, 16]: 1.098
Complete [2, 17]: 1

CC(C)CN(C[C@@H](OP(=O)(O)O)[C@H](Cc1ccccc1)NC(=O)O[C@H]1CCOC1)S(=O)(=O)c1ccc(N)cc1 [Fosamprenavir (Calcium Salt)]
Cholesterol-free media + simvastatin (0.04 μM) [1, 3]: 0.8511
Complete Media [1, 4]: 0.8779
Difference [1, 5]: 0.03
Difference [2, 15]: −0.11
Cholesterol-free [2, 16]: 1.061
Complete [2, 17]: 0.9495

CC(C)CN(C[C@@H](OP(=O)(O)O)[C@H](Cc1ccccc1)NC(=O)O[C@H]1CCOC1)S(=O)(=O)c1ccc(N)cc1 [Fosamprenavir]
Cholesterol-free media + simvastatin (0.04 μM) [1, 8]: 1.194
Complete Media [1, 9]: 1.12
Difference [1, 10]: −0.07
Difference [2, 11]: −0.06
Cholesterol-free [2, 18]: 0.7855
Complete [2, 19]: 0.7241

O=C(O)P(=O)(O)O [Foscarnet (sodium)]
Cholesterol-free media + simvastatin (0.04 μM) [1, 12]: 1.224
Complete Media ([1]; drug in complete media): 1.051
Difference [1, 10]: −0.17
Cholesterol-free [2, 6]: 1.261
Complete ([2]; NCI-H292 cells, complete media): 0.9196
Difference [2, 7]: −0.34

C[C@@H]1O[C@@H]1P(=O)(O)O [Fosfomycin (calcium)]
Cholesterol-free media + simvastatin (0.04 μM) [1, 12]: 1.093
Complete Media ([1]; drug in complete media): 0.8864
Difference [1, 10]: −0.21
Difference [2, 11]: −0.27
Cholesterol-free [2, 6]: 1.27
Complete ([2]; NCI-H292 cells, complete media): 1.001

C[C@@H]1O[C@@H]1P(=O)(O)O [Fosfomycin (sodium)]
Cholesterol-free media + simvastatin (0.04 μM) [1, 8]: 1.163
Complete Media [1, 9]: 1.004
Difference [1, 10]: −0.16
Difference [2, 11]: −0.22
Cholesterol-free [2, 6]: 1.096
Complete ([2]; NCI-H292 cells, complete media): 0.8782

CCC(=O)O[C@@H](O[P@](=O)(CCCCc1ccccc1)CC(=O)N1C[C@H](C2CCCCC2)C[C@H]1C(=O)O)C(C)C [Fosinopril (sodium)]
Cholesterol-free media + simvastatin (0.04 μM) [1, 8]: 0.91
Complete Media [1, 9]: 1.199
Difference [1, 5]: 0.29
Difference [2, 20]: −0.52
Cholesterol-free [2, 21]: 1.831
Complete [2, 22]: 1.313

O=C1NC(c2ccccc2)(c2ccccc2)C(=O)N1COP(=O)(O)O [Fosphenytoin (disodium)]
Cholesterol-free media + simvastatin (0.04 μM) [1, 13]: 1.806
Complete Media [1, 14]: 1.233
Difference [1, 10]: −0.57
Difference [2, 20]: −1.22
Cholesterol-free [2, 21]: 2.489
Complete [2, 22]: 1.268

COc1cc(Nc2ncc(F)c(Nc3ccc4c(n3)N(COP(=O)(O)O)C(=O)C(C)(C)O4)n2)cc(OC)c1OC [Fostamatinib (disodium hexahydrate)]
Cholesterol-free media + simvastatin (0.04 μM) [1, 8]: 0.9752
Complete Media [1, 9]: 0.8745
Difference [1, 10]: −0.10
Difference [2, 11]: 0.00
Cholesterol-free [2, 18]: 0.5454
Complete [2, 19]: 0.5466

COc1cc(Nc2ncc(F)c(Nc3ccc4c(n3)N(COP(=O)(O)O)C(=O)C(C)(C)O4)n2)cc(OC)c1OC [Fostamatinib Disodium]
Cholesterol-free media + simvastatin (0.04 μM) [1, 8]: 0.7811
Complete Media [1, 9]: 0.6698
Difference [1, 10]: −0.11
Difference [2, 11]: −0.20
Cholesterol-free [2, 6]: 1.102
Complete ([2]; NCI-H292 cells, complete media): 0.9004

COc1cc(Nc2ncc(F)c(Nc3ccc4c(n3)N(COP(=O)(O)O)C(=O)C(C)(C)O4)n2)cc(OC)c1OC [Fostamatinib]
Cholesterol-free media + simvastatin (0.04 μM) [1, 13]: 1.406
Complete Media [1, 14]: 1.042
Difference [1, 10]: −0.36
Difference [2, 11]: −0.29
Cholesterol-free [2, 6]: 0.7013
Complete ([2]; NCI-H292 cells, complete media): 0.4125

O=C(CO)[C@@H](O)[C@H](O)[C@H](O)CO [Fructose]
Cholesterol-free media + simvastatin (0.04 μM) [1, 13]: 2.032
Complete Media [1, 14]: 1.165
Difference [1, 10]: −0.87
Cholesterol-free [2, 18]: 1.048
Complete [2, 19]: 1.329
Difference [2, 23]: 0.28

CNC(=O)c1c(C)oc2cc(Oc3ncnc4cc(OC)c(OC)cc34)ccc12 [Fruquintinib]
Cholesterol-free media + simvastatin (0.04 μM) [1, 8]: 1.198
Complete Media [1, 9]: 1.059
Difference [1, 10]: −0.14
Difference [2, 11]: 0.02
Cholesterol-free [2, 18]: 0.9702
Complete [2, 19]: 0.994

N[C@@H](CSCCCO)C(=O)O [Fudosteine]
Cholesterol-free media + simvastatin (0.04 μM) [1, 8]: 1.309
Complete Media [1, 9]: 1.163
Difference [1, 10]: −0.15
Cholesterol-free [2, 18]: 1.084
Complete [2, 19]: 1.177
Difference [2, 23]: 0.09

C[C@]12CC[C@@H]3c4ccc(O)cc4C[C@@H](CCCCCCCCC[S+]([O-])CCCC(F)(F)C(F)(F)F)[C@H]3[C@@H]1CC[C@@H]2O (some centres unmarked) [Fulvestrant]
Cholesterol-free media + simvastatin (0.04 μM) [1, 8]: 1.051
Complete Media [1, 9]: 0.9579
Difference [1, 10]: −0.09
Difference [2, 11]: −0.29
Cholesterol-free [2, 6]: 1.364
Complete ([2]; NCI-H292 cells, complete media): 1.074

CO[C@@H]1[C@H](OC(=O)/C=C/C=C/C=C/C=C/C(=O)O)CC[C@]2(CO2)[C@H]1[C@@]1(C)O[C@@H]1CC=C(C)C [Fumagillin]
Cholesterol-free media + simvastatin (0.04 μM) [1, 13]: 1.348
Complete Media [1, 14]: 1.08
Difference ([1]; complete media vs cholesterol-free media + simvastatin (0.04 μM), […]): −0.27
Difference [2, 24]: −0.08
Cholesterol-free [2, 16]: 0.6031
Complete [2, 17]: 0.519

O=C(O)/C=C/C(=O)O [Fumaric acid]
Cholesterol-free media + simvastatin (0.04 μM) [1, 13]: 1.117
Complete Media [1, 14]: 0.8401
Difference [1, 10]: −0.28
Cholesterol-free [2, 6]: 1.029
Complete ([2]; NCI-H292 cells, complete media): 0.6691
Difference [2, 7]: −0.36

O=C1CN(/N=C/C=C/c2ccc([N+](=O)[O-])o2)C(=O)N1 [Furagin]
Cholesterol-free media + simvastatin (0.04 μM) [1, 25]: 1.137
Complete Media [1, 26]: 1.079
Difference [1, 27]: −0.06
Difference [2, 11]: −0.23
Cholesterol-free [2, 6]: 1.216
Complete ([2]; NCI-H292 cells, complete media): 0.9861

O=C1OCCN1/N=C/c1ccc([N+](=O)[O-])o1 [Furazolidone]
Cholesterol-free media + simvastatin (0.04 μM) [1, 25]: 0.938
Complete Media [1, 26]: 0.9029
Difference [1, 27]: −0.04
Cholesterol-free [2, 18]: 0.797
Difference [2, 23]: 0.35

CC(=O)O[C@H]1C[C@@]2(C)[C@@H](C[C@@H](O)[C@H]3[C@@]4(C)CC[C@@H](O)[C@@H](C)[C@@H]4CC[C@@]32C)/C1=C(\CCC=C(C)C)C(=O)O [Fusidic acid (sodium salt)]
Cholesterol-free media + simvastatin (0.04 μM) [1, 25]: 0.9882
Complete Media [1, 26]: 0.9484
Difference [1, 27]: −0.04
Cholesterol-free [2, 18]: 0.7301
Complete [2, 19]: 1.107
Difference [2, 23]: 0.38

NCC1(CC(=O)O)CCCCC1 [Gabapentin (hydrochloride)]
Cholesterol-free media + simvastatin (0.04 μM) [1, 25]: 1.09
Complete Media [1, 26]: 1.102
Difference ([1]; complete media minus cholesterol-free media + simvastatin (0.04 μM), […]): 0.01
Difference [2, 24]: −0.52
Cholesterol-free [2, 21]: 1.513
Complete [2, 22]: 0.9969
